Test systems include EKVX NSCLC; HCT-15 colon; U251 CNS; UACC-62 melanoma; MCF7 breast; OVCAR-5 ovarian; SK-MEL-2 melanoma; KM12 colon; M14 melanoma; ACHN renal; SN12C renal.
What all share (assay): DTP human tumour cell line panel, 48 h

Molecules are shown by their SMILES.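 How tested: cells in 96-well plates exposed to compound for 48 hours at five concentrations. TGI: concentration producing complete growth inhibition.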

As to `N#CSC#CCCC#CSC#N`, the TGI with EKVX NSCLC was found to be 41.5 µM; in the assay with HCT-15 colon, 34.8 µM; with U251 CNS it was 30.5 µM; in the assay on UACC-62 melanoma it was 31.8 µM; in the assay on MCF7 breast, 48.2 µM; with OVCAR-5 ovarian it was 40.3 µM. Further, the TGI with SK-MEL-2 melanoma came to 43.1 µM; with KM12 colon it was 34.9 µM; in the assay on M14 melanoma it was 26.4 µM; in the assay on ACHN renal it was 31.4 µM; in the assay on SN12C renal it was 31.9 µM.
`O=C1SC(SCc2ccccc2)=NC12CC2c1ccccc1` (stereo not drawn): the TGI with EKVX NSCLC turned out to be 44 µM; in the assay with HCT-15 colon, 51.4 µM; in the assay with U251 CNS, 39 µM; in the assay on UACC-62 melanoma, 32.8 µM; with MCF7 breast, 40.1 µM; in the assay on OVCAR-5 ovarian, 38.9 µM. Besides, the concentration for total growth inhibition (TGI) in the assay on SK-MEL-2 melanoma came out at 40.1 µM; in the assay with KM12 colon it was 33.2 µM; in the assay on M14 melanoma, 37.8 µM; with ACHN renal it was 38.2 µM; in the assay with SN12C renal, 44.3 µM.
Turning to `Nc1ncc2c(n1)-c1ccccc1OC2N1CCCCC1` (stereo not drawn), the TGI with EKVX NSCLC, with HCT-15 colon, with U251 CNS, in the assay with UACC-62 melanoma, in the assay with MCF7 breast and with OVCAR-5 ovarian was above 100 µM each time. Further, the TGI in the assay on SK-MEL-2 melanoma, with KM12 colon, in the assay on M14 melanoma, in the assay on ACHN renal and with SN12C renal was above 100 µM each time.
Turning to `COc1ccccc1CC(=O)C(O)(C(F)(F)F)C(F)(F)F`, the total growth inhibition concentration (TGI) in the assay on EKVX NSCLC, with HCT-15 colon, with U251 CNS, with UACC-62 melanoma, in the assay on MCF7 breast and with OVCAR-5 ovarian was above 100 µM throughout. Moreover, the total growth inhibition concentration (TGI) in the assay on SK-MEL-2 melanoma, in the assay with KM12 colon, with M14 melanoma, with ACHN renal and with SN12C renal was above 100 µM each time.
Turning to `CCOC(=O)CCC(NC(=O)C(N)Cc1ccc(N(CCCl)CCCl)cc1)C(=O)OCC` (stereo not drawn), the TGI with EKVX NSCLC amounted to 6.53 µM; with HCT-15 colon, 1.93 µM; in the assay on U251 CNS, 7.41 µM; with UACC-62 melanoma, 1.4 µM; in the assay on MCF7 breast, 9.5 µM; in the assay on OVCAR-5 ovarian, 7.19 µM. Further, the TGI in the assay with SK-MEL-2 melanoma is 6.05 µM; in the assay on KM12 colon, 3.43 µM; in the assay with M14 melanoma it was 1.39 µM; in the assay on ACHN renal, 0.692 µM; with SN12C renal it was 5.72 µM.
Take `N=c1oc2ccccc2cc1C(=O)NC12CC3CC(CC(C3)C1)C2`: the TGI in the assay on EKVX NSCLC is above 82.8 µM; in the assay on HCT-15 colon, 67.5 µM; in the assay on U251 CNS, 43.8 µM; with UACC-62 melanoma, 62.6 µM; in the assay on MCF7 breast, 18.3 µM; with OVCAR-5 ovarian, above 100 µM. Moreover, the TGI with SK-MEL-2 melanoma is 31.3 µM; with KM12 colon, 52.4 µM; with M14 melanoma, above 100 µM; in the assay on ACHN renal, 31.4 µM; in the assay with SN12C renal, above 100 µM.
On to `O=C1c2sc(-c3ccc(Cl)cc3)cc2-n2cccc21`, for which the TGI in the assay on EKVX NSCLC, in the assay on HCT-15 colon, with U251 CNS, in the assay on UACC-62 melanoma, in the assay with MCF7 breast and in the assay with OVCAR-5 ovarian was above 100 µM in each case. Moreover, the TGI with SK-MEL-2 melanoma, with KM12 colon, in the assay on M14 melanoma, in the assay on ACHN renal and in the assay with SN12C renal was above 100 µM in each case.
As to `O=c1[nH]c(=O)n(C2COC(CO)C2O)cc1F` (stereo not drawn), the TGI in the assay with EKVX NSCLC, in the assay on HCT-15 colon, with U251 CNS, with UACC-62 melanoma, in the assay on MCF7 breast and in the assay with OVCAR-5 ovarian was above 100 µM in each case. In addition, the TGI with SK-MEL-2 melanoma, in the assay on KM12 colon, in the assay with M14 melanoma, in the assay on ACHN renal and in the assay with SN12C renal was above 100 µM in each case.
As for `C=CCNC(=S)N/C=C(\C#N)C(N)=O`, the TGI with EKVX NSCLC, with HCT-15 colon, in the assay with U251 CNS, with UACC-62 melanoma, in the assay with MCF7 breast and in the assay on OVCAR-5 ovarian was above 100 µM each time. Further, the TGI with SK-MEL-2 melanoma, in the assay with KM12 colon, in the assay on M14 melanoma, in the assay on ACHN renal and in the assay on SN12C renal was above 100 µM in each case.
Regarding `O=C1/C(=C/c2ccco2)NC(=S)N1CN1CCCCC1`, the total growth inhibition concentration (TGI) in the assay on EKVX NSCLC, in the assay on HCT-15 colon, in the assay with U251 CNS, in the assay with UACC-62 melanoma, in the assay with MCF7 breast and in the assay with OVCAR-5 ovarian was above 100 µM in each case. Also, the TGI with SK-MEL-2 melanoma, in the assay with KM12 colon, in the assay on M14 melanoma, with ACHN renal and with SN12C renal was above 100 µM in each case.
Turning to `NC(Cc1ccccc1)C(=O)NC(Cc1ccccc1)NC(=O)C(Cc1c[nH]c2ccccc12)C(=O)O` (stereo not drawn), the TGI in the assay on EKVX NSCLC, in the assay on HCT-15 colon, in the assay on U251 CNS, in the assay on UACC-62 melanoma, in the assay on MCF7 breast and in the assay with OVCAR-5 ovarian was above 100 µM in each case. In addition, the TGI in the assay with SK-MEL-2 melanoma, in the assay on KM12 colon, in the assay on M14 melanoma, in the assay with ACHN renal and in the assay with SN12C renal was above 100 µM each time.
As for `COc1ccc(NC(=S)c2ccc(CN3CCCCC3)s2)cc1`, the TGI stood at 41.3 µM in the assay on EKVX NSCLC; 26.9 µM with HCT-15 colon; 34.8 µM in the assay on U251 CNS; 32.8 µM with UACC-62 melanoma; 33.3 µM in the assay with MCF7 breast; 34.1 µM in the assay with OVCAR-5 ovarian. Moreover, the concentration for total growth inhibition (TGI) in the assay on SK-MEL-2 melanoma is 36.9 µM; with KM12 colon, 35.7 µM; with M14 melanoma it was 35.4 µM; in the assay on ACHN renal it was above 100 µM; with SN12C renal, above 100 µM.
On to `O=C1OC(c2ccccc2)=N/C1=C\c1ccc([N+](=O)[O-])cc1`, for which the total growth inhibition concentration (TGI) with EKVX NSCLC is above 100 µM; in the assay on HCT-15 colon, above 100 µM; in the assay with U251 CNS it was above 100 µM; with UACC-62 melanoma it was 96 µM; in the assay with MCF7 breast it was above 100 µM; in the assay with OVCAR-5 ovarian, above 100 µM. The TGI was 86 µM in the assay with SK-MEL-2 melanoma; above 100 µM in the assay with KM12 colon; above 100 µM with M14 melanoma; 40.5 µM in the assay with ACHN renal; above 100 µM in the assay on SN12C renal.

A word on the TGI: it is the concentration at which net growth stops. Low values mean more potent growth arrest, high ones less potent growth arrest.
